Tests used:
TRα = target: T1, TRα (Homo sapiens, UniProt P10827); experiment: In vitro binding activity, LanthaScreen TR-FRET Thyroid Receptor alfa Coactivator Assay; conditions: TRα-LBD
T1 construct: Then 5 μL of 4×TRα-LBD or TRP-LBD; purchased Invitrogen PV4687
Experimental: (§1) 2. Detection of TRα or TRβ Binding Activity In Vitro of the Compound of the Present Invention
(§2) • LanthaScreen TR-FRET Thyroid Receptor beta Coactivator Assay kit was purchased from Invitrogen, Cat. No. PV4686; • LanthaScreen TR-FRET Thyroid Receptor alfa Coactivator Assay kit was purchased from Invitrogen, Cat. No. PV4687. Test Method:
(§3) This method was tested using LanthaScreen TR-FRET Thyroid Receptor beta/alfa Coactivator Assay kit. The test compound was dissolved in DMSO and diluted three-fold to obtain a total of 10 concentrations, then the compounds were diluted into solutions containing 2% DMSO with TR-FRET Coregulator Buffer C in the kit. 10 μL of the compounds containing 2% DMSO were taken to a 384-well plate. Then 5 μL of 4×TRα-LBD or TRP-LBD and 5 μL of a mixture containing 0.4 μM fluorescein-SRC2-2 and 8 nM Tb anti-GST antibody were added to each well. After mixing well, the compounds were incubated at room temperature in the dark for 1 h. After 1 h, the fluorescence value (RFU) was read at 520 nm and 495 nm using PHERAstar FSX microplate reader from BMG LABTECH. The emission signal at 520 nm was divided by the emission signal at 495 nm to calculate the TR-FRET ratio.

TRβ = target: T2, TRβ (Homo sapiens, UniProt P10828); experiment: In vitro binding activity, LanthaScreen TR-FRET Thyroid Receptor beta Coactivator Assay; conditions: TRβ-LBD
T2 construct: Then 5 μL of 4×TRα-LBD or TRP-LBD; purchased Invitrogen PV4686
T2 sequence (P10828 217-461 limits assumed): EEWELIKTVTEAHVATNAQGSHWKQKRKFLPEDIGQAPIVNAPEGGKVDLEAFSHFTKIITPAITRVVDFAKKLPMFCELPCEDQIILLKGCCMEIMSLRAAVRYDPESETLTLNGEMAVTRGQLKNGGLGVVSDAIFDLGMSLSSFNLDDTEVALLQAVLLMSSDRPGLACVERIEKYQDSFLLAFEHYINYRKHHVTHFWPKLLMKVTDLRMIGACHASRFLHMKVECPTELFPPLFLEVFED
Experimental: as §1, §2, §3

T1 sequence (P10827 163-410 isoform P10827-2 limits assumed, other chains not shown): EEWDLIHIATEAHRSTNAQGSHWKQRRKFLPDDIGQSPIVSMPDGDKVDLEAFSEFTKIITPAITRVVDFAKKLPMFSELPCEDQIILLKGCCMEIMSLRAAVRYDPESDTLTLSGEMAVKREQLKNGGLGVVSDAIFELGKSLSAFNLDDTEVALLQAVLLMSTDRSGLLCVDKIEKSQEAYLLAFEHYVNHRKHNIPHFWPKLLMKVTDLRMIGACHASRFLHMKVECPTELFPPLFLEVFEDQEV

| SMILES | EC50 (TRα) | EC50 (TRβ) |
| --- | --- | --- |
| N#Cc1nn(-c2cc(Cl)c(Oc3ccc(=O)n(Cc4ccccc4)c3)c(Cl)c2)c(=O)[nH]c1=O [Example 1, 2-[4-[(1-benzyl-6-oxo-1,6-dihydropyridin-3-yl)oxy]-3,5-dichlorophenyl]-3,5-dioxo-1,2,4-triazine-6-carbonitrile] | 3030 nM | 60 nM |
| N#Cc1nn(-c2cc(Cl)c(Oc3ccc(=O)n(Cc4ccccc4)n3)c(Cl)c2)c(=O)[nH]c1=O [Example 2, 2-[4-(1-benzyl-6-oxo-1,6-dihydropyridazin-3-yl)oxy-3,5-dichlorophenyl]-3,5-dioxo-1,2,4-triazine-6-carbonitrile] | > 100000 nM | > 10000 nM |
| CC(C)n1cc(Oc2c(Cl)cc(-n3nc(C#N)c(=O)[nH]c3=O)cc2Cl)ccc1=O [Example 4, 2-[3,5-dichloro-4-[(1-isopropyl-6-oxo-1,6-dihydropyridin-3-yl)oxy]phenyl]-3,5-dioxo-1,2,4-triazine-6-carbonitrile] | > 100000 nM | 500 nM |
| N#Cc1nn(-c2cc(Cl)c(Oc3ccc(=O)n(-c4ccc(F)cc4)n3)c(Cl)c2)c(=O)[nH]c1=O [Example 8, 2-[3,5-dichloro-4-[1-(4-fluorophenyl)-6-oxo-1,6-dihydropyridazin-3-yl]oxy-phenyl]-3,5-dioxo-1,2,4-triazine-6-carbonitrile] | > 100000 nM | > 10000 nM |
| CC(c1ccccc1)n1nc(Oc2c(Cl)cc(-n3nc(C#N)c(=O)[nH]c3=O)cc2Cl)ccc1=O (centres unmarked) [Example 9, 2-[3,5-dichloro-4-[[6-oxo-1-(1-phenethyl)-1,6-dihydropyridazin-3-yl]oxyl]phenyl]-3,5-dioxo-1,2,4-triazine-6-carbonitrile] | > 100000 nM | > 10000 nM |
| N#Cc1nn(-c2cc(Cl)c(Oc3cnc(=O)n(Cc4ccccc4)c3)c(Cl)c2)c(=O)[nH]c1=O [Example 10, 2-[4-(1-benzyl-2-oxo-1,2-dihydropyrimidin-5-yl)oxy-3,5-dichlorophenyl]-3,5-dioxo-1,2,4-triazine-6-carbonitrile] | > 100000 nM | > 10000 nM |
| N#Cc1nn(-c2cc(Cl)c(Oc3ccc(=O)n(Cc4ccc(F)c(F)c4)c3)c(Cl)c2)c(=O)[nH]c1=O [Example 11, 2-[3,5-dichloro-4-[[1-(3,4-difluorobenzyl)-6-oxo-1,6-dihydropyridin-3-yl]oxy]phenyl]-3,5-dioxo-1,2,4-triazine-6-carbonitrile] | 670 nM | 22 nM |
| N#Cc1nn(-c2cc(Cl)c(Oc3ccc(=O)n(Cc4ccc(OC(F)(F)F)cc4)c3)c(Cl)c2)c(=O)[nH]c1=O [Example 12, 2-[3,5-dichloro-4[[6-oxo-1-[4-(trifluoromethoxy)benzyl]-1,6-dihydropyridin-3-yl]oxy]phenyl]-3,5-dioxo-1,2,4-triazine-6-carbonitrile] | > 100000 nM | 1340 nM |
| N#Cc1nn(-c2cc(Cl)c(Oc3ccc(=O)n(Cc4ccc(F)cc4)c3)c(Cl)c2)c(=O)[nH]c1=O [Example 13, 2-[3,5-dichloro-4-[[1-(4-fluorobenzyl)-6-oxo-1,6-dihydropyridin-3-yl]oxy]phenyl]-3,5-dioxo-1,2,4-triazine-6-carbonitrile] | 600 nM | 20 nM |
| N#Cc1nn(-c2cc(Cl)c(Oc3ccc(=O)n(Cc4cccc(C(F)(F)F)c4)c3)c(Cl)c2)c(=O)[nH]c1=O [Example 14, 2-[3,5-dichloro-4-[[6-oxo-1-[3-(trifluoromethyl)benzyl]-1,6-dihydropyridin-3-yl]oxy]phenyl]-3,5-dioxo-1,2,4-triazine-6-carbonitrile] | 5740 nM | 350 nM |
| CCOC(=O)Cn1cc(Oc2c(Cl)cc(-n3nc(C#N)c(=O)[nH]c3=O)cc2Cl)ccc1=O [Example 17, Ethyl 2-[5-[2,6-dichloro-4-(6-cyano-3,5-dioxo-1,2,4-triazin-2-yl)phenoxy]-2-oxy-pyridine-1(2H)-yl] acetate] | 15400 nM | 350 nM |
| COCCn1cc(Oc2c(Cl)cc(-n3nc(C#N)c(=O)[nH]c3=O)cc2Cl)ccc1=O [Example 18, 2-[3,5-dichloro-4-[[1-(2-methoxyethyl)-6-oxo-1,6-dihydropyridin-3-yl]oxy]phenyl]-3,5-dioxo-1,2,4-triazine-6-carbonitrile] | 1350 nM | 86 nM |
| CCOC(=O)Cn1nc(Oc2c(Cl)cc(-n3nc(C#N)c(=O)[nH]c3=O)cc2Cl)ccc1=O [Example 19, Ethyl 2-[3-[2,6-dichloro-4-(6-cyano-3,5-dioxo-1,2,4-triazin-2-yl)phenoxy]-6-oxy-pyridazine-1(6H)-yl] acetate] | > 100000 nM | > 10000 nM |
| N#Cc1nn(-c2cc(Cl)c(Oc3cnc(=O)n(Cc4ccc(F)cc4)c3)c(Cl)c2)c(=O)[nH]c1=O [Example 20, 2-[3,5-dichloro-4-[1-(4-fluorobenzyl)-2-oxo-1,2-dihydropyrimidin-5-yl]oxy-phenyl]-3,5-dioxo-1,2,4-triazine-6-carbonitrile] | > 100000 nM | 7370 nM |
| COc1cccc(Cn2cc(Oc3c(Cl)cc(-n4nc(C#N)c(=O)[nH]c4=O)cc3Cl)ccc2=O)c1 [Example 22, 2-[3,5-dichloro-4-[[1-[(3-methoxyphenyl)methyl]-6-oxopyridin-3-yl]oxy]phenyl]-3,5-dioxo-1,2,4-triazine-6-carbonitrile] | > 100000 nM | 690 nM |
| Cc1ccc(Cn2cc(Oc3c(Cl)cc(-n4nc(C#N)c(=O)[nH]c4=O)cc3Cl)ccc2=O)cc1 [Example 23, 2-[3,5-dichloro-4-[[1-(4-methylbenzyl)-6-oxo-1,6-dihydropyridin-3-yl]oxy]phenyl]-3,5-dioxo-1,2,4-triazine-6-carbonitrile] | 3000 nM | 60 nM |
| CCOC(=O)C(C)n1cc(Oc2c(Cl)cc(-n3nc(C#N)c(=O)[nH]c3=O)cc2Cl)ccc1=O (centres unmarked) [Example 24, Ethyl 2-(5-(2,6-dichloro-4-(6-cyano-3,5-dioxo-1,2,4-triazin-2-yl)phenoxy)-2-oxypyridine-1(2H)-yl)propionate] | 570 nM | 20 nM |
| N#Cc1nn(-c2cc(Cl)c(Oc3ccc(=O)n(CC4CCOCC4)c3)c(Cl)c2)c(=O)[nH]c1=O [Example 25, 2-[3,5-dichloro-4-[[6-oxo-1-((tetrahydropyran-4-yl)methyl)-1,6-dihydropyridin-3-yl]oxy]phenyl]-3,5-dioxo-1,2,4-triazine-6-carbonitrile] | 6660 nM | 140 nM |
| CCOC(=O)c1nn(-c2cc(Cl)c(Oc3ccc(=O)n(Cc4ccccc4)c3)c(Cl)c2)c(=O)[nH]c1=O [Example 27, Ethyl 2-(4-((1-benzyl-6-oxo-1,6-dihydropyridin-3-yl)oxy)-3,5-dichlorophenyl)-3,5-dioxo-1,2,4-triazine-6-carboxylate] | > 100000 nM | 1490 nM |
| NC(=O)c1nn(-c2cc(Cl)c(Oc3ccc(=O)n(Cc4ccccc4)c3)c(Cl)c2)c(=O)[nH]c1=O [Example 30, 2-(4-((1-benzyl-6-oxo-1,6-dihydropyridin-3-yl)oxy)-3,5-dichlorophenyl)-3,5-dioxo-2,3,4,5-tetrahydro-1,2,4-triazine-6-carboxamide] | > 100000 nM | 3760 nM |
| COc1ccc(Cn2cc(Oc3c(Cl)cc(-n4nc(C#N)c(=O)[nH]c4=O)cc3Cl)ccc2=O)cc1 [Example 31, 2-(3,5-dichloro-4-((1-(4-methoxybenzyl)-6-oxo-1,6-dihydropyridin-3-yl)oxy)phenyl)-3,5-dioxo-2,3,4,5-tetrahydro-1,2,4-triazine-6-carbonitrile] | 4400 nM | 94 nM |
| N#Cc1nn(-c2cc(Cl)c(Oc3ccc(=O)n(CCO)c3)c(Cl)c2)c(=O)[nH]c1=O [Example 32, 2-(3,5-dichloro-4-((1-(2-hydroxyethyl)-6-oxo-1,6-dihydropyridin-3-yl)oxy)phenyl)-3,5-dioxo-2,3,4,5-tetrahydro-1,2,4-triazine-6-carbonitrile] | 22700 nM | 1520 nM |
| O=c1[nH]c(=O)n(-c2cc(Cl)c(Oc3ccc(=O)n(Cc4ccccc4)c3)c(Cl)c2)nc1CO [Example 33, 2-(4-((1-benzyl-6-oxo-1,6-dihydropyridin-3-yl)oxy)-3,5-dichlorophenyl)-6-(hydroxymethyl)-1,2,4-triazine-3,5(2H,4H)-dione] | 3230 nM | 231 nM |
| Cc1cc(-n2nc(C#N)c(=O)[nH]c2=O)cc(C)c1Oc1ccc(=O)n(Cc2ccccc2)c1 [Example 34, 2-(4-((1-benzyl-6-oxo-1,6-dihydropyridin-3-yl)oxy)-3,5-dimethylphenyl)-3,5-dioxo-2,3,4,5-tetrahydro-1,2,4-triazine-6-carbonitrile] | 7310 nM | 367 nM |
| N#Cc1nn(-c2cc(Br)c(Oc3ccc(=O)n(Cc4ccccc4)c3)c(Br)c2)c(=O)[nH]c1=O [Example 35, 2-(4-((1-benzyl-6-oxo-1,6-dihydropyridin-3-yl)oxy)-3,5-dibromophenyl)-3,5-dioxo-2,3,4,5-tetrahydro-1,2,4-triazine-6-carbonitrile] | 473 nM | 17 nM |
